This is an account of results in PubChem BioAssay AID2060900 (Molecular Pharmacology Branch, DTP, NCI, 2025).

For orientation: IC50 means the concentration that gives 50% inhibition. As a reminder, the viability, T/C is the ratio of treated to control.

In this assay the test system is 521955-158-R2-J5-PDC complex spheroids, viability. Description: Anticancer human tumor 521955-158-R2-J5-PDC patient-derived pancreatic carcinoma cell line growth inhibition [RAS]. The following applies: for viability, T/C: stronger effect = lower value. The gist of the method:
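Multi-cell-type spheroids: tumor cells plus HUVEC endothelial cells and mesenchymal stem cells. RAS-pathway inhibitors were combined with targeted agents, each dosed in half-log steps down from clinical Cmax, or from 10 microM when Cmax was unknown.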

Molecules are shown by their SMILES. Where “and” joins values, the source holds several entries; their conditions need not be identical. Identical values can stand only once.
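Note: compound exposure lasted seven days before the viability read.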
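Throughout, for viability, T/C: spheroids also contain HUVEC endothelial cells and mesenchymal stem cells as stroma.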

In the case of `CC1(C)CCC(Nc2ncc(C(F)(F)F)c(-c3c[nH]c4c(P(C)(C)=O)c(C#N)ccc34)n2)CN1` (stereo not given) + CCn1c(-c2cc(N3CCN(C)CC3)cnc2C(C)OC)c2c3cc(ccc31)-c1csc(n1)CC(NC(=O)C1CC1C)C(=O)N1CCCC(N1)C(=O)OCC(C)(C)C2, the IC50 (curve of first compound, second compound 0.000949 µM) was less than 0.949 nM; the IC50 (curve of first compound, second compound 0.003 µM) was less than 0.949 nM; the IC50 (curve of first compound, second compound 0.00949 µM) was less than 0.949 nM; the IC50 (curve of first compound, second compound 0.03 µM) is less than 0.949 nM; the IC50 (curve of first compound, second compound 0.0949 µM) is less than 0.949 nM; the IC50 (curve of first compound, second compound 0.3 µM) was less than 0.949 nM. The viability, T/C was 33.7% (second compound 0.000949 µM, first compound 0.000949 µM); 32% (second compound 0.000949 µM, first compound 0.003 µM); 33.4% (second compound 0.000949 µM, first compound 0.00949 µM); 30.9% (second compound 0.000949 µM, first compound 0.03 µM); 39.5% (second compound 0.000949 µM, first compound 0.0949 µM); 40.5% (second compound 0.000949 µM, first compound 0.3 µM). The viability, T/C is 34.6% (second compound 0.003 µM, first compound 0.000949 µM); 26.5% (second compound 0.003 µM, first compound 0.003 µM); 18% (second compound 0.003 µM, first compound 0.00949 µM); 23.1% (second compound 0.003 µM, first compound 0.03 µM); 23.4% (second compound 0.003 µM, first compound 0.0949 µM); 31.7% (second compound 0.003 µM, first compound 0.3 µM). The viability, T/C (second compound 0.00949 µM, first compound 0.000949 µM) is 24.2%; the viability, T/C (second compound 0.00949 µM, first compound 0.003 µM) is 23.6%; the viability, T/C (second compound 0.00949 µM, first compound 0.00949 µM) was 20.4%; the viability, T/C (second compound 0.00949 µM, first compound 0.03 µM) was 16.6%; the viability, T/C (second compound 0.00949 µM, first compound 0.0949 µM) is 15.1%; the viability, T/C (second compound 0.00949 µM, first compound 0.3 µM) is 19.4%. Moreover, the viability, T/C was 12.3% (second compound 0.03 µM, first compound 0.000949 µM); 17.6% (second compound 0.03 µM, first compound 0.003 µM); 9.79% (second compound 0.03 µM, first compound 0.00949 µM); 7.37% (second compound 0.03 µM, first compound 0.03 µM); 8.43% (second compound 0.03 µM, first compound 0.0949 µM); 7.63% (second compound 0.03 µM, first compound 0.3 µM). Besides, the viability, T/C is, setting by setting: (second compound 0.0949 µM, first compound 0.000949 µM) 8.04%; (second compound 0.0949 µM, first compound 0.003 µM) 7.4%; (second compound 0.0949 µM, first compound 0.00949 µM) 8.22%; (second compound 0.0949 µM, first compound 0.03 µM) 5.8%; (second compound 0.0949 µM, first compound 0.0949 µM) 4.67%; (second compound 0.0949 µM, first compound 0.3 µM) 4.29%. Moreover, the viability, T/C reads like this: (second compound 0.3 µM, first compound 0.000949 µM) 8.35%; (second compound 0.3 µM, first compound 0.003 µM) 7.65%; (second compound 0.3 µM, first compound 0.00949 µM) 4.3%; (second compound 0.3 µM, first compound 0.03 µM) 4.81%; (second compound 0.3 µM, first compound 0.0949 µM) 3.91%; (second compound 0.3 µM, first compound 0.3 µM) 5.79%.
As for `CCN1CCN(Cc2ccc(Nc3ncc(F)c(-c4cc(F)c5nc(C)n(C(C)C)c5c4)n3)nc2)CC1`, the viability, T/C is 102% [middle of 4 runs] (compound 0.00316 µM), 87% [middle of 4 runs] (compound 0.0316 µM) and 81.5% [middle of 4 runs] (compound 0.1 µM). Moreover, under “curve of compound”, the IC50 is greater than 1000 nM.
Consider `CCn1c(-c2cc(N3CCN(C)CC3)cnc2C(C)OC)c2c3cc(ccc31)-c1csc(n1)CC(NC(=O)C1CC1C)C(=O)N1CCCC(N1)C(=O)OCC(C)(C)C2` (stereo not given), for which the viability, T/C runs as follows: (compound 0.000949 µM) 46.5% [middle of 8 runs]; (compound 0.003 µM) 40.6% [middle of 8 runs]; (compound 0.00949 µM) 37.5% [middle of 8 runs]; (compound 0.03 µM) 21.3% [middle of 8 runs]; (compound 0.0949 µM) 12.8% [middle of 8 runs]; (compound 0.3 µM) 10.2% [middle of 8 runs]. Also, under “compound alone, run of 05/20/2024”, the IC50 is < 0.949 nM and 1.04 nM.
Regarding `CCC(CC)c1cc(NC2CCC(N)C2)n2nccc2n1` (stereo not given) + C#Cc1c(F)ccc2cc(O)cc(-c3ncc4c(N5CC6CCC(C5)N6)nc(OCC56CCCN5CC(F)C6)nc4c3F)c12, the IC50 reads like this: (curve of first compound, second compound 0.0316 µM) 1370 nM; (curve of first compound, second compound 0.1 µM) 1160 nM; (curve of first compound, second compound 0.316 µM) 1080 nM; (curve of first compound, second compound 1 µM) 737 nM; (curve of first compound, second compound 3.16 µM) 935 nM; (curve of first compound, second compound 10 µM) 31.6 nM. In addition, the viability, T/C reads like this: (second compound 0.0316 µM, first compound 0.0316 µM) 62.2%; (second compound 0.0316 µM, first compound 0.1 µM) 56%; (second compound 0.0316 µM, first compound 0.316 µM) 68.2%; (second compound 0.0316 µM, first compound 1 µM) 77.6%; (second compound 0.0316 µM, first compound 3.16 µM) 5.12%; (second compound 0.0316 µM, first compound 10 µM) 10.6%. The viability, T/C reads like this: (second compound 0.1 µM, first compound 0.0316 µM) 51.8%; (second compound 0.1 µM, first compound 0.1 µM) 59.7%; (second compound 0.1 µM, first compound 0.316 µM) 65.7%; (second compound 0.1 µM, first compound 1 µM) 55.8%; (second compound 0.1 µM, first compound 3.16 µM) 8.07%; (second compound 0.1 µM, first compound 10 µM) 12.2%. The viability, T/C runs as follows: (second compound 0.316 µM, first compound 0.0316 µM) 56.4%; (second compound 0.316 µM, first compound 0.1 µM) 72.5%; (second compound 0.316 µM, first compound 0.316 µM) 56.3%; (second compound 0.316 µM, first compound 1 µM) 53%; (second compound 0.316 µM, first compound 3.16 µM) 7.76%; (second compound 0.316 µM, first compound 10 µM) 12.5%. Moreover, the viability, T/C by setting is: (second compound 1 µM, first compound 0.0316 µM) 47.6%; (second compound 1 µM, first compound 0.1 µM) 54.1%; (second compound 1 µM, first compound 0.316 µM) 64%; (second compound 1 µM, first compound 1 µM) 48.1%; (second compound 1 µM, first compound 3.16 µM) 7.46%; (second compound 1 µM, first compound 10 µM) 10.2%. The viability, T/C (second compound 3.16 µM, first compound 0.0316 µM) was 53.8%; the viability, T/C (second compound 3.16 µM, first compound 0.1 µM) is 61.7%; the viability, T/C (second compound 3.16 µM, first compound 0.316 µM) is 52.2%; the viability, T/C (second compound 3.16 µM, first compound 1 µM) is 49.7%; the viability, T/C (second compound 3.16 µM, first compound 3.16 µM) was 4.58%; the viability, T/C (second compound 3.16 µM, first compound 10 µM) is 13.5%. Further, the viability, T/C is 46% (second compound 10 µM, first compound 0.0316 µM); 51.2% (second compound 10 µM, first compound 0.1 µM); 45% (second compound 10 µM, first compound 0.316 µM); 33% (second compound 10 µM, first compound 1 µM); 4.49% (second compound 10 µM, first compound 3.16 µM); 9.43% (second compound 10 µM, first compound 10 µM).
